Data reported in US20160177395A1, “BIOMARKERS FOR THE PREDICTION OF RENAL INJURY” (priority 2007, published 2016).
Several values for one entry are separate records, joined by “and”; a condition that tells them apart may be missing. Equal values may be shown once.

Tested on: kidney tissues of treated or untreated rats
Test: Real-time qRT-PCR of marker transcripts in kidney tissue panel, discovery stage (Table 22)
Format: in vivo, rat
Set-up: AI502869_DB71_seg0 normalized Real Time PCR expression: unit not given beside the values
Settings: listed as Cis
Method: Before RT preparation the RNA was treated with DNA-free (Ambion, cat. No. AM1906) DNase treatment and removal—according to manufacturer protocol. DNase procedure was repeated until no DNA is detected in a PCR reaction using the RNA samples.
The mixture is then incubated for 5 min at 65° C. and then quickly chilled on ice. Thereafter, 20 μl of 5× SuperscriptII first strand buffer (Invitrogen, Cat. No. Y00146), 9.6 μl 0.1M DTT (Invitrogen, Cat. No. Y00147) and 160 units RNasin (Promega, Cat. No. N251A) are added, and the mixture is incubated for 10 min at 25° C., followed by further incubation at 42° C. for 2 min. […] The resulting cDNA is diluted 1:20 in TE buffer (10 mM Tris pH=8, 1 mM EDTA pH=8).
cDNA (5 μl), prepared as described above, is used as a template in Real-Time PCR reactions using the SYBR Green I assay (PE Applied Biosystem) with specific primers in 100 nM concentration if not indicated otherwise and UNG Enzyme (Eurogentech or equal) Amplification is effected as follows: 50° C. for 2 min, 95° C. for 10 min, and then 40 cycles of 95° C. for 15 sec, followed by 60° C. for 1 min (if not indicated otherwise). Amplification step is followed by dissociation step. Detection is performed by using the PE Applied Biosystem SDS 7000. The cycle in which the reactions achieved a threshold level (Ct) of fluorescence is registered and is used to calculate the relative transcript quantity in the RT reactions. Non-detected samples are assigned Ct value of 41 and are calculated accordingly. The relative quantity is calculated using the equation Q=efficiencŷ-Ct. The efficiency of the PCR reaction is calculated from a standard curve, created by using serial dilutions of several reverse transcription (RT) reactions. To minimize inherent differences in the RT reaction, the resulting relative quantities are normalized to normalization factor calculated as follows: […]
The relative quantity (Q) of each housekeeping gene in each sample is calculated as described above. In order to calculate the “relative Q relative to MED” each Q for each HSKP gene is divided by the median quantity of this gene in all panel samples. To finally achieve the normalization factor of each sample the geometric mean of all four “relative Q relative to MED” was calculated. The normalization factor was then used for further calculations.
The markers of the present invention were tested with regard to their expression in a panel of kidney tissues samples from treated and control rats. Unless otherwise noted, all experimental data relates to the novel polynucleotides and proteins of the present invention, named according to the segment being tested (as expression was tested through RT-PCR as described). Tests were then performed as described in the “Materials and Experimental Procedures” section above.
The qRT-PCR measurements were normalized according to each samples normalization factor as described in “RT Preparation and Real-Time qRT-PCR Analysis” and further multiplied by a constant factor for ease of viewing.

[1] = rat kidney, day1, individual animals (F and M)
[2] = rat kidney, day1, individual animals

## N.N.[Cl][Pt][Cl] [Cisplatin]
kidney, female rats, day1
  normalized Real Time PCR MUSCYCG1R_DB81_seg19-20: 0.86 and 0.81
  normalized Real Time PCR RATRAB13X_DB81_seg15-17: 0.82 and 1.11 and 1.1
  normalized Real Time PCR RATRAB13X_DB81_seg22: 0.88 and 0.87 and 1.02
  normalized Real Time PCR W33294_DB81_seg44: 1 and 0.95
kidney, female rats, day5
  normalized Real Time PCR MUSCYCG1R_DB81_seg19-20: 2.77 and 3.44 and 2.45
  normalized Real Time PCR RATRAB13X_DB81_seg15-17: 1.37 and 1.53
  normalized Real Time PCR RATRAB13X_DB81_seg22: 1.71 and 1.92 and 1.99
  normalized Real Time PCR W33294_DB81_seg23: 2.03 and 1.99 and 1.58
  normalized Real Time PCR W33294_DB81_seg44: 2.31 and 2.19 and 2.15
kidney, female rats, day28
  normalized Real Time PCR MMU09507_DB81_seg15: 8.1 and 6.58 and 5.53
  normalized Real Time PCR MUSCYCG1R_DB81_seg19-20: 1.64 and 2.47 and 1.67
  normalized Real Time PCR RATRAB13X_DB81_seg15-17: 1.33
  normalized Real Time PCR RATRAB13X_DB81_seg22: 0.61 and 0.65 and 0.89
  normalized Real Time PCR W33294_DB81_seg23: 0.95 and 0.97 and 0.82
kidney, male rats, day1
  normalized Real Time PCR MUSCYCG1R_DB81_seg19-20: 0.85 and 0.71 and 1.18
  normalized Real Time PCR RATRAB13X_DB81_seg15-17: 0.73 and 0.84 and 0.98
  normalized Real Time PCR RATRAB13X_DB81_seg22: 0.65 and 0.66 and 1.11
  normalized Real Time PCR W33294_DB81_seg23: 0.59 and 0.49 and 0.64
  normalized Real Time PCR W33294_DB81_seg44: 0.6 and 0.84 and 0.96
kidney, male rats, day5
  normalized Real Time PCR MUSCYCG1R_DB81_seg19-20: 1.83 and 1.47 and 2.33
  normalized Real Time PCR RATRAB13X_DB81_seg15-17: 1.8 and 1.03 and 1.77
  normalized Real Time PCR RATRAB13X_DB81_seg22: 1.53 and 1.2
  normalized Real Time PCR W33294_DB81_seg44: 1.47 and 1.51
kidney, male rats, day28
  normalized Real Time PCR MUSCYCG1R_DB81_seg19-20: 2.13 and 1.97 and 2.21
  normalized Real Time PCR RATRAB13X_DB81_seg15-17: 0.95
  normalized Real Time PCR RATRAB13X_DB81_seg22: 0.66 and 0.76 and 0.65
  normalized Real Time PCR W33294_DB81_seg23: 0.95 and 0.82 and 0.88
  normalized Real Time PCR W33294_DB81_seg44: 0.83 and 0.89
[1]
  H33998_DB71_seg19 normalized Real Time PCR: 0.85 and 1 and 0.87 and 0.65 and 0.75 and 1.14
  MUSCYCG1R_DB81_seg15-17 normalized Real Time PCR: 0.77 and 0.85 and 0.72 and 0.54 and 0.35 and 0.67
  RATLRFI_DB71_seg9 normalized Real Time PCR: 1.49 and 0.3 and 0.57 and 0.24 and 0.2 and 0.37
  RATRAB13X_DB71_seg11-13 normalized Real Time PCR: 0.91 and 1.09 and 0.87 and 1.15
  RNU24174_DB71_seg8 normalized Real Time PCR: 0.57 and 0.32 and 0.36 and 0.2 and 0.27 and 0.69
  W41270_DB81_seg11 normalized Real Time PCR: 1.11 and 0.86 and 0.76 and 0.33 and 0.63 and 0.71
  W64472_DB81_seg2 normalized Real Time PCR: 0.8 and 0.54 and 0.55 and 0.3 and 0.51 and 0.92
  W83813_DB81_seg27 normalized Real Time PCR: 1.1 and 0.97 and 0.99 and 0.5 and 0.66 and 0.94
[2]
  AA686189_DB71_seg6 normalized Real Time PCR expression: 0.7 and 0.44 and 0.66 and 0.48 and 0.42 and 0.68
  AA799594_DB71_seg0 normalized Real Time PCR expression: 0.39 and 0.98 and 0.59 and 0.99 and 0.87
  AA964541_DB71_seg0 normalized Real Time PCR expression: 0.88 and 0.58 and 0.41 and 0.4 and 0.29 and 0.56
  AI045075_DB71_seg6 normalized Real Time PCR expression: 1.01 and 0.68 and 0.79 and 0.64 and 0.62 and 1.09
  AI454051_DB71_seg0 normalized Real Time PCR expression: 0.94 and 1.22 and 1 and 0.65 and 0.96 and 1.45
  AI502869_DB71_seg0 normalized Real Time PCR expression: 0.67 and 0.78 and 0.74 and 0.87 (2×) and 0.84
